PMC12527922, “Cocaine chemogenetics blunts drug-seeking by synthetic physiology” (Nature, 2025)
Values joined by “and” are separate entries in the source; they are usually repeats but may differ in a detail not shown here. Equal entries are not always repeated.

Test system: GRABDA dopamine sensor, nucleus accumbens shell
Assay: Fibre photometry of dopamine (GRABDA) after cocaine administration
Format: in vivo, rat
Conditions: for GRABDA dopamine signal, Mean: ED Fig. 9d; for GRABDA response versus saline: cocaine 5, 10, 20 mg per kg i.p.
Description: Male Sprague–Dawley rats were anaesthetized with isoflurane (1.5–2%) and then placed onto a stereotaxic frame (Kopf) and injected with AAV5-Syn::coca-5HT3-IRES-mCherry (0.5 µl, 4.95 × 10^12 vg per ml) into the LHb (AP, −3.8 mm relative to bregma; ML, ±0.7 mm; DV, −5.25 mm, at a 10° angle) (n = 5) or underwent sham surgery (n = 6). Rats were also implanted with an optic fibre (400 µm core, 0.50 NA) attached to a 2.5 mm diameter ferrule (Thorlabs) directed to the medial shell of the nucleus accumbens (AP, +1.7 mm relative to bregma; ML, ±0.9 mm; DV, −7.0 mm). To ensure that AAV9-Syn::GRABDA1m was transduced at the direct vicinity of the fibre tip, we coated the fibre with the AAV (0.4 µl, 5 × 10^12 vg per ml) using a silk fibroin film before its implantation as previously described.
For fibre photometry, dopamine (GRABDA) dynamics were measured using a Tucker-Davis Technologies (TDT) system in anaesthetized rats. […] Data were acquired at 1 kHz. On the testing day, rats were anaesthetized (isoflurane: induction, 5%; maintenance, 3%) and attached to a photometry patch cord (400 μm core, 0.50 NA). GRABDA signals were then collected for 5 min, followed by a saline i.p. injection, and additional GRABDA signal measurement for 20 min. Cocaine was then injected i.p. at 20, 10 or 5 mg per kg, and the GRABDA signal was measured for an additional 20 min. Each rat was tested three times with cocaine doses administered in randomized order. Fibre photometry analyses were performed using scripts in MATLAB R2023b (MathWorks) based on codes from the Barker (https://github.com/djamesbarker)[64] and Lerner (https://github.com/talialerner/)[65] laboratories. […] The GRABDA signal was normalized to values at 1 min before saline or cocaine injection and shown as the average z-scored activity per min. […] Fibre photometry data are represented as mean ± s.e.m. Statistical analyses were performed using Prism 10 (GraphPad).

[1] = ED Fig. 9a, Cocaine 10 mg/kg, Time 5
[2] = ED Fig. 9a, Cocaine 10 mg/kg, Time 6
[3] = ED Fig. 9a, Cocaine 10 mg/kg, Time 7
[4] = ED Fig. 9a, Cocaine 10 mg/kg, Time 8
[5] = ED Fig. 9a, Cocaine 10 mg/kg, Time 9
[6] = ED Fig. 9a, Cocaine 10 mg/kg, Time 10
[7] = ED Fig. 9a, Cocaine 10 mg/kg, Time 11
[8] = ED Fig. 9a, Cocaine 10 mg/kg, Time 12
[9] = ED Fig. 9a, Cocaine 10 mg/kg, Time 13
[10] = ED Fig. 9a, Cocaine 10 mg/kg, Time 14
[11] = ED Fig. 9a, Cocaine 10 mg/kg, Time 15
[12] = ED Fig. 9a, Cocaine 10 mg/kg, Time 16
[13] = ED Fig. 9a, Cocaine 10 mg/kg, Time 17
[14] = ED Fig. 9a, Cocaine 10 mg/kg, Time 18
[15] = ED Fig. 9a, Cocaine 10 mg/kg, Time 19
[16] = ED Fig. 9a, Cocaine 10 mg/kg, Time -1

COC(=O)[C@H]1[C@@H](OC(=O)c2ccccc2)C[C@@H]2CC[C@H]1N2C [cocaine]
GRABDA dopamine signal, single rats (ED Fig. 9a, Cocaine 10 mg/kg, Time 4): 1.256 and 1.397 and 0.09982 and 0.6394 and 1.0999 and 0.05112 | GRABDA dopamine signal, AVG [1]: 1.193 | GRABDA dopamine signal, single rats [1]: 1.343 and 2.078 and 0.3984 and 0.8156 and 2.4787 and 0.0445 | GRABDA dopamine signal, AVG [2]: 1.422 | GRABDA dopamine signal, single rats [2]: 1.711 and 2.382 and 0.7218 and 1.242 and 2.331 and 0.1429 | GRABDA dopamine signal, AVG [3]: 1.596 | GRABDA dopamine signal, single rats [3]: 1.781 and 2.522 and 1.248 and 1.497 and 2.407 and 0.1218 | GRABDA dopamine signal, AVG [4]: 1.699 | GRABDA dopamine signal, single rats [4]: 2.125 and 2.686 and 1.2639 and 1.736 and 2.313 and 0.06957 | GRABDA dopamine signal, AVG [5]: 1.935 | GRABDA dopamine signal, single rats [5]: 2.098 and 2.8744 and 1.781 and 1.888 and 2.927 and 0.03932 | GRABDA dopamine signal, AVG [6]: 2.176 | GRABDA dopamine signal, single rats [6]: 2.19 and 2.83 and 2.002 and 2.24 and 3.737 and 0.0549 | GRABDA dopamine signal, AVG [7]: 2.088 | GRABDA dopamine signal, single rats [7]: 2.259 and 2.779 and 2.031 and 2.445 and 2.889 and 0.1232 | GRABDA dopamine signal, AVG [8]: 1.996 | GRABDA dopamine signal, single rats [8]: 2.418 and 2.64 and 2.12 and 2.366 and 2.425 and 0.00481 | GRABDA dopamine signal, AVG [9]: 2.15 | GRABDA dopamine signal, single rats [9]: 2.55 and 2.491 and 2.555 and 2.51 and 2.634 and 0.161 | GRABDA dopamine signal, AVG [10]: 2.1808 | GRABDA dopamine signal, single rats [10]: 2.759 and 2.573 and 2.372 and 2.6549 and 2.629 and 0.09693 | GRABDA dopamine signal, AVG [11]: 2.145 | GRABDA dopamine signal, single rats [11]: 2.608 and 2.303 and 2.535 and 2.6631 and 2.692 and 0.06715 | GRABDA dopamine signal, AVG [12]: 2.005 | GRABDA dopamine signal, single rats [12]: 2.483 and 2.2 and 2.525 and 2.513 and 2.213 and 0.09632 | GRABDA dopamine signal, AVG [13]: 2.106 | GRABDA dopamine signal, single rats [13]: 2.751 and 1.972 and 2.4136 and 2.994 and 2.448 and 0.05475 | GRABDA dopamine signal, AVG [14]: 1.975 | GRABDA dopamine signal, single rats [14]: 2.385 and 1.7832 and 2.833 and 2.375 and 2.433 and 0.03971 | GRABDA dopamine signal, AVG [15]: 1.865 | GRABDA dopamine signal, single rats [15]: 2.396 and 1.613 and 2.323 and 2.558 and 2.225 and 0.07693 | GRABDA dopamine signal, AVG [16]: 0.04715 | GRABDA dopamine signal, single rats [16]: 0.0433 and 0.0669 and 0.08953 and 0.0687 | GRABDA dopamine signal, AVG (ED Fig. 9c, Cocaine 20 mg/kg, Time 0): 0.0619 | GRABDA dopamine signal, AVG (ED Fig. 9c, Cocaine 20 mg/kg, Time 1): 0.07229 | GRABDA dopamine signal, AVG (ED Fig. 9c, Cocaine 20 mg/kg, Time 2): 0.3247 | GRABDA dopamine signal, AVG (ED Fig. 9c, Cocaine 20 mg/kg, Time 3): 0.7746 | GRABDA dopamine signal, AVG (ED Fig. 9c, Cocaine 20 mg/kg, Time 4): 1.201 | GRABDA dopamine signal, AVG (ED Fig. 9c, Cocaine 20 mg/kg, Time 5): 1.589 | GRABDA dopamine signal, AVG (ED Fig. 9c, Cocaine 20 mg/kg, Time 6): 1.681 | GRABDA dopamine signal, AVG (ED Fig. 9c, Cocaine 20 mg/kg, Time 7): 1.863 | GRABDA dopamine signal, AVG (ED Fig. 9c, Cocaine 20 mg/kg, Time 8): 1.725 | GRABDA dopamine signal, AVG (ED Fig. 9c, Cocaine 20 mg/kg, Time 9): 1.85 | GRABDA dopamine signal, AVG (ED Fig. 9c, Cocaine 20 mg/kg, Time 10): 1.747 | GRABDA dopamine signal, AVG (ED Fig. 9c, Cocaine 20 mg/kg, Time 11): 1.666 | GRABDA dopamine signal, AVG (ED Fig. 9c, Cocaine 20 mg/kg, Time 12): 1.553 | GRABDA dopamine signal, AVG (ED Fig. 9c, Cocaine 20 mg/kg, Time 13): 1.4 | GRABDA dopamine signal, AVG (ED Fig. 9c, Cocaine 20 mg/kg, Time 14): 1.393 | GRABDA dopamine signal, AVG (ED Fig. 9c, Cocaine 20 mg/kg, Time 15): 1.467 | GRABDA dopamine signal, AVG (ED Fig. 9c, Cocaine 20 mg/kg, Time 16): 1.282 | GRABDA dopamine signal, AVG (ED Fig. 9c, Cocaine 20 mg/kg, Time 17): 1.1 | GRABDA dopamine signal, AVG (ED Fig. 9c, Cocaine 20 mg/kg, Time 18): 1.175 | GRABDA dopamine signal, AVG (ED Fig. 9c, Cocaine 20 mg/kg, Time 19): 1.238 | GRABDA dopamine signal, AVG (ED Fig. 9c, Cocaine 20 mg/kg, Time -1): -0.01168 | GRABDA dopamine signal, Mean (Cocaine 20 mg/kg, Time 0): -0.2698 | GRABDA dopamine signal, Mean (Cocaine 20 mg/kg, Time 1): -0.1247 | GRABDA dopamine signal, Mean (Cocaine 20 mg/kg, Time 2): 0.09345 | GRABDA dopamine signal, Mean (Cocaine 20 mg/kg, Time 3): 0.3137 | GRABDA dopamine signal, Mean (Cocaine 20 mg/kg, Time 4): 0.5516 | GRABDA dopamine signal, Mean (Cocaine 20 mg/kg, Time 5): 0.5577 | GRABDA dopamine signal, Mean (Cocaine 20 mg/kg, Time 6): 0.3392 | GRABDA dopamine signal, Mean (Cocaine 20 mg/kg, Time 7): 0.3431 | GRABDA dopamine signal, Mean (Cocaine 20 mg/kg, Time 8): 0.2873 | GRABDA dopamine signal, Mean (Cocaine 20 mg/kg, Time 9): 0.5323 | GRABDA dopamine signal, Mean (Cocaine 20 mg/kg, Time 10): 0.4252 | GRABDA dopamine signal, Mean (Cocaine 20 mg/kg, Time 11): 0.3604 | GRABDA dopamine signal, Mean (Cocaine 20 mg/kg, Time 12): 0.1832 | GRABDA dopamine signal, Mean (Cocaine 20 mg/kg, Time 13): 0.2813 | GRABDA dopamine signal, Mean (Cocaine 20 mg/kg, Time 14): 0.2778 | GRABDA dopamine signal, Mean (Cocaine 20 mg/kg, Time 15): 0.4094 | GRABDA dopamine signal, Mean (Cocaine 20 mg/kg, Time 16): 0.4918 | GRABDA dopamine signal, Mean (Cocaine 20 mg/kg, Time 17): 0.3214 | GRABDA dopamine signal, Mean (Cocaine 20 mg/kg, Time 18): 0.2818 | GRABDA dopamine signal, Mean (Cocaine 20 mg/kg, Time 19): 0.2119 | GRABDA dopamine signal, Mean (Cocaine 20 mg/kg, Time -1): 0.05504 | GRABDA response versus saline (coca-5HT3 rats): did not produce statistically significant increases | GRABDA response versus saline (control rats): significantly increased
